IC50 data for 41 molecules are collected here from patent US10065941B2, “Aminotriazine derivative and pharmaceutical composition comprising the same” (Shionogi & Co., Ltd., priority 2013, dated 2018).

Sequence of human P2X3 receptor (P56373 whole entry): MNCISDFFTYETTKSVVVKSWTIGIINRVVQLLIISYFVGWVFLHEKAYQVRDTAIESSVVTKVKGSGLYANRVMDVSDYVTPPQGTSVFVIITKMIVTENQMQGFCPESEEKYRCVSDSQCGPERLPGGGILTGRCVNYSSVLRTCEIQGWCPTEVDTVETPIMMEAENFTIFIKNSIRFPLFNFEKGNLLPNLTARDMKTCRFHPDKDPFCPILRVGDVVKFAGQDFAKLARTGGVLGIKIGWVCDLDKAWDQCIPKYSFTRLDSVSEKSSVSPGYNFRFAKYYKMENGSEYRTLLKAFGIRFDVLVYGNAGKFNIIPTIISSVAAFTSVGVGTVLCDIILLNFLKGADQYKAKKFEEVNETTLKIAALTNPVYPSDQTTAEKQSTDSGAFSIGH

This assay concerns the target human P2X3 receptor (Homo sapiens (Human), UniProt P56373). Kind of assay: Evaluation of human P2X3 receptor inhibitory activity (Test Example 1). Format: cell-based. As to conditions: C6BU-1 cell transfected with human P2X3 receptor gene, FLIPR 384. In short, it runs like this:
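FLIPR calcium read-out: signal taken as peak fluorescence after ATP addition divided by starting fluorescence, and IC50 calculated from it. Compound added 5 min before 150 nM ATP solution (pre-dispense stock) to Fluo-3-AM-loaded C6BU-1 cells stably transfected with human P2X3; HEPES buffer pH 7.5 with probenecid.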
What is called IC50 is the midpoint of a concentration-inhibition curve. For the molecule `CC(C)(Cn1c(=O)[nH]/c(=N\c2ccc(Oc3ccccn3)cc2)n(Cc2ccc(Cl)cc2)c1=O)C(=O)O` [Compound I-154], half-maximal inhibition (IC50) required 8 nM. Then `Cc1ccc(Cn2c(=O)n(CC(C)(C)C(=O)O)c(=O)[nH]/c2=N\c2ccc(Oc3ccccn3)cc2)cc1` [Compound I-155], with 8 nM. `COc1cccnc1Oc1ccc(/N=c2\[nH]c(=O)n(C[C@H](C)C(=O)O)c(=O)n2Cc2ccc(Cl)cc2)cc1` [Compound I-156] gave an IC50 of 12 nM. Next, `COC(=O)C[C@@H](C)n1c(=O)[nH]/c(=N\c2ccc(Oc3ccccn3)cc2)n(Cc2ccc(Cl)cc2)c1=O` [Compound I-157]: 5 nM. With `COC(=O)C[C@@H](C)n1c(=O)[nH]/c(=N\c2ccc(Oc3cccc(F)n3)cc2)n(Cc2ccc(Cl)cc2)c1=O` [Compound I-158], the IC50 was 6 nM. Next, `COC(=O)C(C)(C)Cn1c(=O)[nH]/c(=N\c2ccc(Oc3ncccc3OC)cc2)n(Cc2ccc(Cl)cc2)c1=O` [Compound I-159]: 9 nM; `COC(=O)C[C@@H](C)n1c(=O)[nH]/c(=N\c2ccc(Oc3ccc(F)cn3)cc2)n(Cc2ccc(Cl)cc2)c1=O` [Compound I-160]: 5 nM. Next, `COC(=O)C[C@@H](C)n1c(=O)[nH]/c(=N\c2ccc(Oc3ncccc3F)cc2)n(Cc2ccc(Cl)cc2)c1=O` [Compound I-161]: 10 nM; `C[C@H](CC(=O)O)n1c(=O)[nH]/c(=N\c2ccc(Oc3cccc(F)n3)cc2)n(Cc2ccc(Cl)cc2)c1=O` [Compound I-163]: 8 nM. Next, `COc1cccnc1Oc1ccc(/N=c2\[nH]c(=O)n(CC(C)(C)C(=O)O)c(=O)n2Cc2ccc(Cl)cc2)cc1` [Compound I-164]: 29 nM; `C[C@H](CC(=O)O)n1c(=O)[nH]/c(=N\c2ccc(Oc3ccc(F)cn3)cc2)n(Cc2ccc(Cl)cc2)c1=O` [Compound I-165]: 15 nM; `C[C@H](CC(=O)O)n1c(=O)[nH]/c(=N\c2ccc(Oc3ncccc3F)cc2)n(Cc2ccc(Cl)cc2)c1=O` [Compound I-166]: 13 nM. For `C[C@@H](Cn1c(=O)[nH]/c(=N\c2ccc(Oc3ccc(F)cn3)cc2)n(Cc2ccc(C(F)F)cc2)c1=O)C(=O)O` [Compound I-167], the IC50 was 19 nM. Next, `C[C@@H](Cn1c(=O)[nH]/c(=N\c2ccc(Oc3cccc(F)n3)cc2)n(Cc2ccc(C(F)F)cc2)c1=O)C(=O)O` [Compound I-168]: 12 nM.

The molecule `C[C@@H](Cn1c(=O)[nH]/c(=N\c2ccc(Oc3ncccc3F)cc2)n(Cc2ccc(C(F)F)cc2)c1=O)C(=O)O` [Compound I-169] came in with an IC50 of 21 nM.

Take `CCOC(=O)[C@H]1C[C@H](n2c(=O)[nH]/c(=N\c3ccc(Oc4ccccn4)cc3)n(Cc3ccc(Cl)cc3)c2=O)C1` [Compound I-170]: the IC50 was determined as 15 nM.

In turn, `CCOC(=O)[C@H]1C[C@@H](n2c(=O)[nH]/c(=N\c3ccc(Oc4ccccn4)cc3)n(Cc3ccc(Cl)cc3)c2=O)C1` [Compound I-171] came in with an IC50 of 9 nM. On to `CCOC(=O)[C@H]1C[C@@H](n2c(=O)[nH]/c(=N\c3ccc(Oc4ccc(Cl)cn4)cc3)n(Cc3ccc(C)cc3)c2=O)C1` [Compound I-173], for which the IC50 was 8 nM. Then `O=c1[nH]/c(=N\c2ccc(Oc3ccccn3)cc2)n(Cc2ccc(Cl)cc2)c(=O)n1[C@H]1C[C@H](C(=O)O)C1` [Compound I-174], with 6 nM; and `O=c1[nH]/c(=N\c2ccc(Oc3ccccn3)cc2)n(Cc2ccc(Cl)cc2)c(=O)n1[C@H]1C[C@@H](C(=O)O)C1` [Compound I-175], with 9 nM. Then `CCOC(=O)[C@H]1C[C@H](n2c(=O)[nH]/c(=N\c3ccc(Oc4ccc(F)cn4)cc3)n(Cc3ccc(C)cc3)c2=O)C1` [Compound I-176], with 7 nM; and `CCOC(=O)[C@H]1C[C@@H](n2c(=O)[nH]/c(=N\c3ccc(Oc4ccc(F)cn4)cc3)n(Cc3ccc(C)cc3)c2=O)C1` [Compound I-177], with 6 nM; and `Cc1ccc(Cn2c(=O)n([C@H]3C[C@@H](C(=O)O)C3)c(=O)[nH]/c2=N\c2ccc(Oc3ccc(Cl)cn3)cc2)cc1` [Compound I-179], with 6 nM. Molecule `CCOC(=O)[C@H]1C[C@H](n2c(=O)[nH]/c(=N\c3ccc(Oc4ccccn4)cc3)n(Cc3ccc(C)cc3)c2=O)C1` [Compound I-180] showed an IC50 of 5 nM. Then `CCOC(=O)[C@H]1C[C@@H](n2c(=O)[nH]/c(=N\c3ccc(Oc4ccccn4)cc3)n(Cc3ccc(C)cc3)c2=O)C1` [Compound I-181], with 5 nM.

For the molecule `Cc1ccc(Cn2c(=O)n([C@H]3C[C@H](C(=O)O)C3)c(=O)[nH]/c2=N\c2ccc(Oc3ccc(F)cn3)cc2)cc1` [Compound I-182], inhibition was half-maximal at 8 nM (IC50). `Cc1ccc(Cn2c(=O)n([C@H]3C[C@@H](C(=O)O)C3)c(=O)[nH]/c2=N\c2ccc(Oc3ccc(F)cn3)cc2)cc1` [Compound I-183] had an IC50 of 12 nM. Next, `Cc1ccc(Cn2c(=O)n([C@H]3C[C@H](C(=O)O)C3)c(=O)[nH]/c2=N\c2ccc(Oc3ccccn3)cc2)cc1` [Compound I-184]: 6 nM. Next, `Cc1ccc(Cn2c(=O)n([C@H]3C[C@@H](C(=O)O)C3)c(=O)[nH]/c2=N\c2ccc(Oc3ccccn3)cc2)cc1` [Compound I-185]: 9 nM; `COC(=O)C[C@@H](C)n1c(=O)[nH]/c(=N\c2ccc(Oc3ccccn3)cc2)n(Cc2ccc(C)cc2)c1=O` [Compound I-186]: 5 nM; `Cc1ccc(Cn2c(=O)n([C@H](C)CC(=O)O)c(=O)[nH]/c2=N\c2ccc(Oc3ccccn3)cc2)cc1` [Compound I-187]: 8 nM. Next, `COC(=O)C[C@@H](C)n1c(=O)[nH]/c(=N\c2ccc(Oc3ncccc3F)cc2)n(Cc2ccc(C)cc2)c1=O` [Compound I-188]: 7 nM. Regarding `Cc1ccc(Cn2c(=O)n([C@H](C)CC(=O)O)c(=O)[nH]/c2=N\c2ccc(Oc3ncccc3F)cc2)cc1` [Compound I-189], the IC50 is 12 nM.

Turning to `COC(=O)C[C@@H](C)n1c(=O)[nH]/c(=N\c2ccc(Oc3ccc(F)cn3)cc2)n(Cc2ccc(C)cc2)c1=O` [Compound I-190], inhibition was half-maximal at 5 nM (IC50). Then `Cc1ccc(Cn2c(=O)n([C@H](C)CC(=O)O)c(=O)[nH]/c2=N\c2ccc(Oc3ccc(F)cn3)cc2)cc1` [Compound I-191], with 11 nM. Next, `CCOC(=O)C1(Cn2c(=O)[nH]/c(=N\c3ccc(Oc4ccccn4)cc3)n(Cc3ccc(Cl)cc3)c2=O)CC1` [Compound I-192]: 5 nM; `O=C(O)C1(Cn2c(=O)[nH]/c(=N\c3ccc(Oc4ccccn4)cc3)n(Cc3ccc(Cl)cc3)c2=O)CC1` [Compound I-193]: 8 nM; `COC(=O)[C@@H](C)Cn1c(=O)[nH]/c(=N\c2ccc(Oc3ccccn3)cc2)n(Cc2ccc(C(F)F)cc2)c1=O` [Compound I-194]: 12 nM. Then `Cc1ccc(Cn2c(=O)n([C@@H](C)[C@@H](C)C(=O)O)c(=O)[nH]/c2=N\c2ccc(Oc3ccccn3)cc2)cc1` [Compound I-195], with 7 nM.

For the molecule `CO[C@H](Cn1c(=O)[nH]/c(=N\c2ccc(Oc3ccccn3)cc2)n(Cc2ccc(Cl)cc2)c1=O)C(=O)O` [Compound I-200], the midpoint of inhibition, the IC50, lay at 42 nM. Next, `C[C@@H](Cn1c(=O)[nH]/c(=N\c2ccc(Oc3ccccn3)cc2)n(Cc2ccc(C(F)F)cc2)c1=O)C(=O)O` [Compound I-201]: 13 nM.
